ChEMBL document CHEMBL2203064, “Inhibitors of the acetyltransferase domain of N-acetylglucosamine-1-phosphate-uridylyltransferase/glucosamine-1-phosphate-acetyltransferase (GlmU). Part 2: Optimization of physical properties leading to antibacterial aryl sulfonamides” (Bioorg Med Chem Lett, 2012)
In brackets after ≈: the same amount, converted by molar mass. Activity calls are given as the source filed them. The calls are words filed in the database; no cut-off is given here.

Tests used:
Haemophilus influenzae [1] = experiment: Antibacterial activity against acrB efflux-pump deficient mutant of Haemophilus influenzae; assay type: functional
[2] = Inhibition of Escherichia coli GlmU
[3] = Inhibition of Haemophilus influenzae GlmU
[4] = Inhibition of Streptococcus pneumoniae GlmU
Haemophilus influenzae [5] = experiment: Antibacterial activity against acrB efflux-pump deficient mutant of Haemophilus influenzae assessed as inhibition of lipid biosynthesis; assay type: functional, organism-based
Haemophilus influenzae [6] = experiment: Antibacterial activity against acrB efflux-pump deficient mutant of Haemophilus influenzae assessed as inhibition of cell-wall biosynthesis; assay type: functional, organism-based
Haemophilus influenzae [7] = experiment: Antibacterial activity against acrB efflux-pump deficient mutant of Haemophilus influenzae assessed as inhibition of radio-labeled biosynthetic precursor incorporation; assay type: functional, organism-based
physchem = conditions: buffer, pH 7.4
Description: Lipophilicity, log D of the compound at pH 7.4

## COc1cc(OC)c(S(=O)(=O)N(c2ccccc2)c2ccc(N)cc2)cc1NC(=O)CCC(=O)O
Haemophilus influenzae [1]
  MIC: > 64 µg/mL
[2]
  IC50: 20 nM
[3]
  IC50: 400 nM
[4]
  IC50: 40200 nM

## COc1cc(O)c(S(=O)(=O)N2c3ccccc3CCC2C)cc1NC(=O)CCC(=O)O (stereo unspecified)
Haemophilus influenzae [5]
  inhibition: Active
Haemophilus influenzae [1]
  MIC: 32 µg/mL (≈ 71.3 µM)
[2]
  IC50: 50 nM
Haemophilus influenzae [6]
  inhibition: Active
Haemophilus influenzae [7]
  inhibition: Active
[3]
  IC50: 280 nM
[4]
  IC50: 46600 nM
physchem
  logD: -0.27

## COc1cc(OC)c(S(=O)(=O)N2c3ccccc3Oc3ccccc32)cc1NC(=O)CCC(=O)O
Haemophilus influenzae [5]
  inhibition: Active
Haemophilus influenzae [1]
  MIC: 32 µg/mL (≈ 64.2 µM)
[2]
  IC50: 10 nM
Haemophilus influenzae [6]
  inhibition: Active
Haemophilus influenzae [7]
  inhibition: Active
[3]
  IC50: 20 nM
[4]
  IC50: 14600 nM

## COc1cc(OC)c(S(=O)(=O)N2c3ccccc3CCC2C)cc1NC(=O)Cc1ccnc(C#N)c1 (stereo unspecified)
Haemophilus influenzae [1]
  MIC: > 128 µg/mL
[2]
  IC50: 680 nM
[3]
  IC50: 670 nM
[4]
  IC50: 10000 nM

## COc1cc(OC)c(S(=O)(=O)N2c3ccccc3CCC2C)cc1NC(=O)CCc1nn[nH]n1 (stereo unspecified)
Haemophilus influenzae [1]
  MIC: > 64 µg/mL
[2]
  IC50: 430 nM
[3]
  IC50: 600 nM
[4]
  IC50: 24700 nM
physchem
  logD: -0.34

## COc1cc(O)c(S(=O)(=O)N2c3ccccc3CCC2C)cc1NC(=O)[C@@H]1C(C)[C@H]1C(=O)O (relative stereo)
Haemophilus influenzae [1]
  MIC: 128 µg/mL (≈ 270 µM)
[2]
  IC50: < 480 nM
[3]
  IC50: 380 nM
[4]
  IC50: 7840 nM

## COc1cc(OC)c(S(=O)(=O)N(c2ccccc2)c2ccccc2)cc1NC(=O)CCC(=O)O
Haemophilus influenzae [1]
  MIC: > 64 µg/mL
[2]
  IC50: 40 nM
[3]
  IC50: 910 nM
[4]
  IC50: 25500 nM

## COc1cc(OC)c(S(=O)(=O)N2c3ccccc3Oc3ccccc32)cc1NC(=O)[C@@H]1C(C)[C@H]1C(=O)O (mixture of isomers)
Haemophilus influenzae [1]
  MIC: 32 µg/mL
[2]
  IC50: 30 nM
[3]
  IC50: 10 nM
[4]
  IC50: 5300 nM
physchem
  logD: 0.06

## COc1cc(OC)c(S(=O)(=O)N2c3ccccc3Oc3ccccc32)cc1NC(=O)/C=C/C(=O)O
Haemophilus influenzae [1]
  MIC: 64 µg/mL (≈ 129 µM)
[2]
  IC50: 10 nM
[3]
  IC50: 20 nM
[4]
  IC50: 21500 nM
physchem
  logD: -0.71

## COc1cc(O)c(S(=O)(=O)N2c3ccccc3Oc3ccccc32)cc1NC(=O)[C@@H]1C(C)[C@H]1C(=O)O (relative stereo)
Haemophilus influenzae [1]
  MIC: 32 µg/mL (≈ 62.7 µM)
[2]
  IC50: 60 nM
[3]
  IC50: 30 nM
[4]
  IC50: 30300 nM

## COc1cc(OC)c(S(=O)(=O)N2c3ccccc3Oc3ccccc32)cc1NC(=O)Cc1ccncc1
Haemophilus influenzae [1]
  MIC: 64 µg/mL (≈ 124 µM)
[2]
  IC50: 60 nM
[3]
  IC50: 30 nM
[4]
  IC50: 32000 nM

## COc1cc(OC)c(S(=O)(=O)N2Cc3ccccc3Oc3ccccc32)cc1NC(=O)CCC(=O)O
Haemophilus influenzae [1]
  MIC: 32 µg/mL (≈ 62.4 µM)
[2]
  IC50: 30 nM
[3]
  IC50: 80 nM
[4]
  IC50: 55000 nM

## COc1cc(OC)c(S(=O)(=O)N2c3ccccc3Oc3ccccc32)cc1NC(=O)Cc1ccnc(F)c1
Haemophilus influenzae [1]
  MIC: > 128 µg/mL
[2]
  IC50: 90 nM
[3]
  IC50: 30 nM
[4]
  IC50: 9900 nM
physchem
  logD: 3.37

## COc1cc(OC)c(S(=O)(=O)N2c3ccccc3Sc3ccccc32)cc1NC(=O)CCC(=O)O
Haemophilus influenzae [1]
  MIC: > 64 µg/mL
[2]
  IC50: 90 nM
[3]
  IC50: 370 nM
[4]
  IC50: 36900 nM
physchem
  logD: -0.31

## COc1cc(OC)c(S(=O)(=O)N(c2ccccc2)c2ccc3ccccc3c2)cc1NC(=O)CCC(=O)O
Haemophilus influenzae [1]
  MIC: 32 µg/mL (≈ 59.9 µM)
[2]
  IC50: 40 nM
[3]
  IC50: 830 nM
[4]
  IC50: 8400 nM

## COc1cc(OC)c(S(=O)(=O)N(c2ccc(C)cc2)c2ccc(C)cc2)cc1NC(=O)CCC(=O)O
Haemophilus influenzae [1]
  MIC: 32 µg/mL (≈ 62.4 µM)
[2]
  IC50: 40 nM
[3]
  IC50: 320 nM
[4]
  IC50: 48000 nM

## COc1cc(OC)c(S(=O)(=O)N2c3ccccc3CCC2C)cc1NC(=O)[C@@H]1C(C)[C@H]1C(=O)O (mixture of isomers)
Haemophilus influenzae [1]
  MIC: 128 µg/mL
[2]
  IC50: 400 nM
[3]
  IC50: 510 nM
[4]
  IC50: 5900 nM
physchem
  logD: -0.39

## COc1cc(OC)c(S(=O)(=O)N2c3ccccc3CCC2C)cc1NC(=O)Cc1ccnc(F)c1 (stereo unspecified)
Haemophilus influenzae [1]
  MIC: > 128 µg/mL
[2]
  IC50: 800 nM
[3]
  IC50: 520 nM
[4]
  IC50: 9000 nM
physchem
  logD: 2.49
